Laboratory results taken from BigSolDB 2.1.

CCc1ccc2c(c1)C(=O)c1ccccc1C2=O
solubility (mole fraction)
Details | 304.15 K | 309.15 K | 314.15 K | 319.15 K | 324.15 K | 329.15 K | 334.15 K | 339.15 K | 344.15 K
in 2-methyl-cyclohexyl acetate | 0.0752 | 0.0907 | 0.104 | 0.127 | 0.145 | 0.171 | 0.199 | 0.232 | 0.268
in 2-phenylethanol | 0.107 | 0.127 | 0.15 | 0.176 | 0.21 | 0.248 | 0.288 | 0.334 | 0.385
in DMAc | 0.0943 | 0.113 | 0.131 | 0.156 | 0.184 | 0.214 | 0.248 | 0.287 | 0.336
in DMF | 0.107 | 0.126 | 0.153 | 0.176 | 0.21 | 0.245 | 0.283 | 0.335 | 0.388
in acetophenone | 0.138 | 0.163 | 0.185 | 0.21 | 0.238 | 0.274 | 0.315 | 0.356 | 0.397
in diglyme | 0.165 | 0.191 | 0.216 | 0.244 | 0.275 | 0.314 | 0.357 | 0.401 | 0.444
in diisobutyl methanol | 0.0441 | 0.0536 | 0.0651 | 0.0787 | 0.0973 | 0.116 | 0.139 | 0.163 | 0.199
in dioctyl adipate | 0.0657 | 0.0773 | 0.0899 | 0.107 | 0.129 | 0.152 | 0.18 | 0.209 | 0.242
in mesitylene | 0.139 | 0.159 | 0.184 | 0.209 | 0.234 | 0.264 | 0.296 | 0.329 | 0.371
in styrene | 0.0944 | 0.112 | 0.132 | 0.153 | 0.182 | 0.212 | 0.248 | 0.285 | 0.335
in tetrabutyl urea | 0.0531 | 0.0644 | 0.0785 | 0.0947 | 0.116 | 0.139 | 0.17 | 0.197 | 0.24
in trioctyl phosphate | 0.0569 | 0.0678 | 0.0792 | 0.0959 | 0.114 | 0.135 | 0.155 | 0.182 | 0.22
